Data from patent publication US9284296B2, “Bipyridine sulfonamide derivatives for the treatment of neurodegenerative diseases or conditions” (AUBERGINE PHARMACEUTICALS LLC, priority 2010, dated 2016).

Each compound was assayed on secretion of amyloid peptide β1-40 (Aβ1-40) (assay: Inhibition of β-amyloid secretion (CHO7w cells stably transfected with human APP, ELISA)). Details: CHO-7W, 24 h incubation, range stated for the listed compounds together.
Format: cell-based
Description: The inhibition caused by the compounds on the secretion of amyloid peptide β1-40 (Aβ1-40) was determined by measuring the levels of this peptide in cell supernatants after incubating the cells with several concentrations of the tested compound. A CHO7w cell line, stably transfected with human amyloid precursor protein (APP), was used. Cells were dispensed in 96-well culture plates (5,000 cells/well) and grown in DMEM supplemented with 2% (v/v) foetal bovine serum, 100 U/ml penicillin, 100 μg/ml streptomycin, 2 mM L-glutamine and 200 μg/ml G418 in the presence of several concentrations of the tested compound which had been previously dissolved in DMSO (1% (v/v) DMSO final concentration). After a 24 h incubation the amount of Aβ1-40 secreted to the medium was measured with an ELISA-based commercial kit (Human Amyloid β-40 ELISA High Sensitivity Kit, Millipore, Billerica, Mass., USA) using absorbance at 450 nm as the final readout. In the culture plate several wells were included as a control for lack of Aβ1-40 secretion, in these wells the cells were incubated in the presence of 16% (v/v) DMSO to inhibit cell growth therefore abolishing Aβ1-40 secretion. Likewise, several wells were also included as a control for full Aβ1-40 secretion, in these wells the cells were grown in the presence of 1% (v/v) DMSO. The absorbance of each tested sample was normalized to that of the control wells, so that for every compound concentration the percentage of inhibition was calculated with the following equation:
[formula] where “S” is the absorbance of the sample being considered, “E” is the average absorbance of wells lacking Aβ1-40 secretion and “B” is the average absorbance of wells with full Aβ1-40 secretion. The inhibition values obtained at every compound concentration were fitted to a 4-parameters isotherm equation, as described above, to calculate the […] (i.e., the concentration causing 50% of inhibition of Ab1-40 secretion).

Row | Compound | IC50 [µM]
1 | CCN(CC)CCOc1cc(CN(Cc2cc(OCCN(CC)CC)cc(-c3ccccn3)n2)S(=O)(=O)c2cccs2)nc(-c2ccccn2)c1 [Compound 29, Thiophene-2-sulfonic acid bis-[4-(2-diethylamino-ethoxy)-[2,2′]bipyridinyl-6-ylmethyl]-amide] | 0.3 to 42
2 | COc1cc(CNS(=O)(=O)c2c(Cl)cccc2Cl)nc(-c2ccccn2)c1 [Compound 97] | 0.3 to 42
3 | COc1cc(CNS(=O)(=O)c2c(C)cc(C)cc2C)nc(-c2ccccn2)c1 [Compound 75] | 0.3 to 42
4 | COc1cc(CNS(=O)(=O)CCC(F)(F)F)nc(-c2ccccn2)c1 [Compound 86] | 0.3 to 42
5 | COc1cc(CN(S(=O)(=O)c2ccc(Cl)s2)S(=O)(=O)c2ccc(Cl)s2)nc(-c2ccccn2)c1 [Compound 26] | 0.3 to 42
6 | COc1cc(CNS(=O)(=O)c2ccc3c(c2)OCCO3)nc(-c2ccccn2)c1 [Compound 87] | 0.3 to 42
7 | COc1ccc(S(=O)(=O)NCc2cc(OC)cc(-c3ccccn3)n2)cc1 [Compound 38, 4-Methoxy-N-(4-methoxy-[2,2′]bipyridinyl-6-ylmethyl)-benzenesulfonamide] | 0.3 to 42
8 | COc1cc(CNS(=O)(=O)c2cc(Cl)ccc2Cl)nc(-c2ccccn2)c1 [Compound 100] | 0.3 to 42
9 | COc1cc(CNS(=O)(=O)c2ccc(-c3cnco3)s2)nc(-c2ccccn2)c1 [Compound 55] | 0.3 to 42
10 | COc1cc(CNS(=O)(=O)c2cc(C(F)(F)F)ccc2F)nc(-c2ccccn2)c1 [Compound 66] | 0.3 to 42
11 | COc1cc(CNS(=O)(=O)c2ccc(CNC(C)=O)s2)nc(-c2ccccn2)c1 [Compound 52] | 0.3 to 42
12 | COc1cc(CNS(=O)(=O)c2c(F)cc(OC)cc2F)nc(-c2ccccn2)c1 [Compound 85] | 0.3 to 42
13 | COc1cc(CNS(=O)(=O)c2ccccc2C#N)nc(-c2ccccn2)c1 [Compound 40] | 0.3 to 42
14 | COc1cc(CNS(=O)(=O)c2ccc([N+](=O)[O-])cc2)nc(-c2ccccn2)c1 [Compound 74] | 0.3 to 42
15 | COc1cc(CNS(=O)(=O)c2cc3ccccc3s2)nc(-c2ccccn2)c1 [Compound 73] | 0.3 to 42
16 | COc1cc(CN(Cc2cc(OC)cc(-c3ccccn3)n2)S(=O)(=O)c2ccc(Cl)s2)nc(-c2ccccn2)c1 [Compound 27] | 0.3 to 42
17 | COc1cc(CNS(=O)(=O)c2ccc(C(F)(F)F)cc2[N+](=O)[O-])nc(-c2ccccn2)c1 [Compound 102] | 0.3 to 42
18 | COc1cc(CNS(=O)(=O)c2cc(Cl)ccc2F)nc(-c2ccccn2)c1 [Compound 44] | 0.3 to 42
19 | COc1cc(CNS(=O)(=O)c2c(C)cccc2Cl)nc(-c2ccccn2)c1 [Compound 84] | 0.3 to 42
20 | COC(=O)c1ccc(S(=O)(=O)NCc2cc(OC)cc(-c3ccccn3)n2)o1 [Compound 51] | 0.3 to 42
21 | COc1cc(CNS(=O)(=O)c2ccc(-c3ccno3)s2)nc(-c2ccccn2)c1 [Compound 42] | 0.3 to 42
22 | COc1cc(CNS(=O)(=O)c2ccc(C(C)(C)C)cc2)nc(-c2ccccn2)c1 [Compound 88] | 0.3 to 42
23 | COc1cc(CNS(=O)(=O)c2ccc(-c3ccccc3)cc2)nc(-c2ccccn2)c1 [Compound 89] | 0.3 to 42
24 | COc1cc(CNS(=O)(=O)c2sc(Cl)nc2C)nc(-c2ccccn2)c1 [Compound 47] | 0.3 to 42
25 | COc1cc(CNS(=O)(=O)c2ccc(-c3ccccn3)s2)nc(-c2ccccn2)c1 [Compound 46] | 0.3 to 42
26 | COc1cc(CNS(=O)(=O)c2cnc(Cl)nc2)nc(-c2ccccn2)c1 [Compound 107] | 0.3 to 42

Each compound was assayed on SH-SY5Y human neuroblastoma cells (assay: Protection against hydrogen peroxide-induced cell death). Details: Homo sapiens; SH-SY5Y cells, 1 h preincubation, 100 μM hydrogen peroxide, 24 h, LDH readout of live cells.
Format: cell-based
Description: The aim of this assay is to determine the neuroprotective effect of the compounds when human neuroblastoma cells are exposed to the oxidative stress induced by hydrogen peroxide, which leads to cell death. Therefore the protective effect of the compounds was measured by monitoring cell survival using a suitable commercial kit (Cytotoxicity Detection Kit, Roche Diagnostics GmbH, Mannheim, Germany) based on the quantification of the lactate dehydrogenase activity obtained from lysates of the remaining live cells with a colorimetric assay yielding absorbance at 492 nm as the final readout.
SH-SY5Y human neuroblastoma cells were seeded into 96-well culture plate at a density of 10,000 cells/well. Cells were preincubated for one hour with different concentrations of the compound at a 1% (v/v) DMSO concentration in an equivolumetric mixture of Minimum Essential Medium (MEM) and Nutrient Mixture HAM F12 supplemented with 10% foetal bovine serum, 100 U/ml penicillin, 100 μg/ml streptomycin, 1 mM each of non-essential aminoacids (commercial preparation from GIBCO, Paisley, UK) and 2 mM L-glutamine. Hydrogen peroxide was then added to reach 100 μM and the incubation was extended for 24 h. Then the medium was removed and live cells, which remained attached to the bottom of the plate, were lysed by incubating them during 5 min with 50 μl of 1% (v/v) Triton X-100 in Krebs-Hepes buffer (10 mM Hepes pH7.3 with 145 mM NaCl, 5.5 mM KCl, 1 mM MgCl2, 2 mM CaCl2 and 1 mM glucose). This lysate was used to measure LDH activity using the commercial kit according to the manufacturer's instructions. In the culture plate several wells were included as a control of cell death, in these wells the cells were preincubated with 1% (v/v) DMSO before hydrogen peroxide addition. Likewise, several wells were included as control for full cell survival, in these wells the addition of H2O2 was omitted. The absorbance of each tested sample was normalized to that of the control wells, so that for every compound concentration the percentage of protective effect was calculated with the following equation:
[formula] where “S” is the absorbance of the sample being considered, “E” is the average absorbance of wells used as control of full cell survival and “B” is the average absorbance of wells used as control of cell death. The values obtained at every compound concentration were finally used to calculate the EC50 (i.e., the concentration causing 50% of protective effect) of the tested compound. For that purpose the data were fitted to a classical 4-parameters isotherm equation using the nonlinear regression function of GraphPad™ Prism 5.0 (GraphPad Software Inc.), such equation is described below:
[formula] where “L” is the lower asymptote of the theoretical sigmoidal curve, “H” is the higher asymptote, “C” is the concentration of compound and “n” is the Hill coefficient.

Row | Compound | EC50 [µM]
27 | COc1cc(CNS(=O)(=O)c2ccc3ccccc3c2)nc(-c2ccccn2)c1 [Compound 15, Naphthalene-2-sulfonic acid (4-methoxy-[2,2′]bipyridinyl-6-ylmethyl)-amide] | 4.8
28 | COc1cc(CNS(=O)(=O)c2cccc3scnc23)nc(-c2ccccn2)c1 [Compound 61] | 0.82
29 | COc1cc(CNS(=O)(=O)C2CCCCC2)nc(-c2ccccn2)c1 [Compound 7, Cyclohexanesulfonic acid (4-methoxy-[2,2′]bipyridinyl-6-ylmethyl)-amide] | 11.2
30 | COc1cc(CNS(=O)(=O)c2c(F)cccc2F)nc(-c2ccccn2)c1 [Compound 58] | 1.6
31 | COc1cc(CN(S(=O)(=O)c2ccc(Cl)s2)S(=O)(=O)c2ccc(Cl)s2)nc(-c2ccccn2)c1 [Compound 26] | 4.6
32 | COc1cc(CNS(=O)(=O)c2cccc3cccnc23)nc(-c2ccccn2)c1 [Compound 60] | 3.2
33 | COc1cc(CNS(=O)(=O)c2cc(F)ccc2F)nc(-c2ccccn2)c1 [Compound 59] | 4.8
34 | COc1cc(CN(Cc2cc(OC)cc(-c3ccccn3)n2)S(=O)(=O)c2cccs2)nc(-c2ccccn2)c1 [Compound 25] | 4.95
35 | COc1cc(CNS(=O)(=O)c2cc(Cl)ccc2Cl)nc(-c2ccccn2)c1 [Compound 100] | 1.04
36 | COc1cc(CNS(=O)(=O)c2ccc(-c3cnco3)s2)nc(-c2ccccn2)c1 [Compound 55] | 1.3
37 | COc1cc(CNS(=O)(=O)c2ccc(C)cc2)nc(-c2ccccn2)c1 [Compound 3, N-(4-Methoxy-[2,2′]bipyridinyl-6-ylmethyl)-4-methyl-benzenesulfonamide] | 23
38 | COc1cc(CNS(=O)(=O)N2CCOCC2)nc(-c2ccccn2)c1 [Compound 20, Morpholine-4-sulfonic acid (4-methoxy-[2,2′]bipyridinyl-6-ylmethyl)-amide] | 5.1
39 | COc1cc(CNS(=O)(=O)c2cc3ccccc3o2)nc(-c2ccccn2)c1 [Compound 62] | 1.88
40 | COc1cc(CNS(C)(=O)=O)nc(-c2ccccn2)c1 [Compound 5, N-(4-Methoxy-[2,2′]bipyridinyl-6-ylmethyl)-methanesulfonamide] | 39.8
41 | COc1cc(CNS(=O)(=O)c2cccnc2)nc(-c2ccccn2)c1 [Compound 21, Pyridine-3-sulfonic acid (4-methoxy-[2,2′]bipyridinyl-6-ylmethyl)-amide] | 5.19
42 | COc1cc(CNS(=O)(=O)c2c(C)noc2C)nc(-c2ccccn2)c1 [Compound 54] | 23.1
43 | COc1cc(CNS(=O)(=O)c2ccc(Cl)cc2F)nc(-c2ccccn2)c1 [Compound 57] | 1.5
44 | COc1cc(CNS(=O)(=O)C(F)(F)F)nc(-c2ccccn2)c1 [Compound 17, C,C,C-Trifluoro-N-(4-methoxy-[2,2′]bipyridinyl-6-ylmethyl)-methanesulfonamide] | 0.82
45 | COc1cc(CN(Cc2cc(OC)cc(-c3ccccn3)n2)S(=O)(=O)c2ccc(Cl)s2)nc(-c2ccccn2)c1 [Compound 27] | 3.52
46 | COc1cc(CNS(=O)(=O)c2cccc(Cl)c2Cl)nc(-c2ccccn2)c1 [Compound 95] | 1.09
47 | COc1cc(CNS(=O)(=O)c2ccc(-c3cc(C)no3)o2)nc(-c2ccccn2)c1 [Compound 79] | 0.72
48 | COc1cc(CNS(=O)(=O)c2cc(OC)ccc2OC)nc(-c2ccccn2)c1 [Compound 1, 2,5-Dimethoxy-N-(4-methoxy-[2,2′]bipyridinyl-6-ylmethyl)-benzenesulfonamide] | 36
49 | COc1cc(CNS(=O)(=O)Cc2ccc(C(F)(F)F)cc2)nc(-c2ccccn2)c1 [Compound 23, N-(4-Methoxy-[2,2′]bipyridinyl-6-ylmethyl)-C-(4-trifluoromethyl-phenyl)-methanesulfonamide] | 2.91
50 | COc1cc(CNS(=O)(=O)c2ccc(S(C)(=O)=O)cc2)nc(-c2ccccn2)c1 [Compound 22, 4-Methanesulfonyl-N-(4-methoxy-[2,2′]bipyridinyl-6-ylmethyl)-benzenesulfonamide] | 0.88
